According to patent publication US8633183B2 (priority 2010, dated 2014):

Each compound was assayed against PI3Kalpha (Homo sapiens (Human), UniProt P42336). Conditions: read-out: IC50 PI3K.
PI3Kalpha, sequence (P42336 whole entry, looked up): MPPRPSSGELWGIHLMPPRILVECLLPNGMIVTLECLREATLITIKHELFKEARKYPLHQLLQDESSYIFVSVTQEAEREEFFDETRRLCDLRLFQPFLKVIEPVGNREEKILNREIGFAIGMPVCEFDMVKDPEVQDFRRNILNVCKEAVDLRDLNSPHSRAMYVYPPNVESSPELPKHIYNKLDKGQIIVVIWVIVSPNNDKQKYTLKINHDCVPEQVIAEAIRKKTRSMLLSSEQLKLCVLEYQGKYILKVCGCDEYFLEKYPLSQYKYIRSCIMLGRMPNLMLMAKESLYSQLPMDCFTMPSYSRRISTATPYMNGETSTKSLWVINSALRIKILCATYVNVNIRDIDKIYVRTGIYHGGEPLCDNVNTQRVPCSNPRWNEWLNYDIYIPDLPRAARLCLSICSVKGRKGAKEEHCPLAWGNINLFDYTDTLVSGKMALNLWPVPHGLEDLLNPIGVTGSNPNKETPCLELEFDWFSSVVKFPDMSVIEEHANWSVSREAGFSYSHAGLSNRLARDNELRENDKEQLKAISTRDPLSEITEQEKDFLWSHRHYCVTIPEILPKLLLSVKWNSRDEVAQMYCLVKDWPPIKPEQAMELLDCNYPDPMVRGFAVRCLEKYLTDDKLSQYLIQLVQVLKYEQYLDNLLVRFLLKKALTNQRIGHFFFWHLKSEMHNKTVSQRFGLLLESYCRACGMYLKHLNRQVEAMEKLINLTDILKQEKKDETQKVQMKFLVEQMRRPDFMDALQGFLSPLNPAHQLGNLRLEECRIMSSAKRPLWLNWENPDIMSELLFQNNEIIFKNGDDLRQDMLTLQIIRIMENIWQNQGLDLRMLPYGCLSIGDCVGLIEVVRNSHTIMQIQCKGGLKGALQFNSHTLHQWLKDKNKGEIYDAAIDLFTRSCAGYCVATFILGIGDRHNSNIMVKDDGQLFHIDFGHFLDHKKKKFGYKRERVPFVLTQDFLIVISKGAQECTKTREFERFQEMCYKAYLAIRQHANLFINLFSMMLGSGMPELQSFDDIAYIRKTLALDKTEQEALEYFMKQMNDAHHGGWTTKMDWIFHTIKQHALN
Method: Plot the concentration of each compound versus the emission ratio. […] Determination of IC50 values can be obtained by curve fitting (sigmoidal dose response, variable slope) using Prism software from GraphPad).
Method Type: Filter-Binding-Assay
Compounds are serially diluted in assay buffer+6% DMSO and 10 μl of each dilution is added per well of a 96-well plate (compounds are tested in duplicates) and mixed with 30 μl of the lipid vesicles containing PDGFR-Peptide (0.5 μM final) and PI3K alpha (25 ng/well final). The mixture is then incubated for 20 minutes at room temperature. Subsequently, 20 μl of assay buffer containing 3 μM cold ATP and 0.5 μCi/20 μl 33P-ATP are added. The plates are then incubated at room temperature for 120 minutes (shaking with 300 rpm). The reaction mix is transferred onto filter plates using “filtermate harvester” from Packard: filter plates are rinsed with PBS, then the reaction mix is filtered onto the filter plate, washed 5 times with PBS and are allowed to dry for 30-60 minutes at 50° C.
As positive control serve wells containing vehicle controls (1% DMSO in assay buffer), showing non-inhibited kinase activity (high values). Wells containing assay buffer instead of enzyme can serve as control for background activity (low values).
Calculate IC50 values using the Smiley program (based on GrapPad Prism)

| SMILES | IC50 [nM] |
| --- | --- |
| CCc1ncnc(-c2ccc(C(=O)N3CC[C@@H](O)C3)c(F)c2)c1C#Cc1ccc(N)nc1 [Example D-204] | 69 |
| CCc1ncnc(-c2ccc(C(=O)NC3CCCN(C4CCN(C)CC4)C3)c(F)c2)c1C#Cc1ccc(N)nc1 [Example D-205] | 335 |
| CCc1ncnc(-c2ccc(C(=O)NC3CC(N4CCCCC4)C3)c(F)c2)c1C#Cc1ccc(N)nc1 [Example D-207] | 436 |
| CCc1ncnc(-c2ccc(C(=O)NC3CC(N4CCC(N5CCCC5)CC4)C3)c(F)c2)c1C#Cc1ccc(N)nc1 [Example D-208] | 308 |
| CCc1ncnc(-c2ccc(C(=O)NC3CCN(C4CCN(C)CC4)C3)c(F)c2)c1C#Cc1ccc(N)nc1 [Example D-210] | 370 |
| CCc1ncnc(-c2ccc(C(=O)NCCN3CCCC3=O)c(F)c2)c1C#Cc1ccc(N)nc1 [Example D-211] | 46 |
| CCc1ncnc(-c2ccc(C(=O)NC3CCS(=O)(=O)C3)c(F)c2)c1C#Cc1ccc(N)nc1 [Example D-212] | 79 |
| CCc1ncnc(-c2ccc(C(=O)NC3CC(C)(C)NC(C)(C)C3)c(F)c2)c1C#Cc1ccc(N)nc1 [Example D-213] | 272 |
| CCc1ncnc(-c2ccc(C(=O)NCC3(C)COC3)c(F)c2)c1C#Cc1ccc(N)nc1 [Example D-214] | 72 |
| CCc1ncnc(-c2ccc(C(=O)N3CCC(N(C)C)C3)c(F)c2)c1C#Cc1ccc(N)nc1 [Example D-215] | 227 |
| CCc1ncnc(-c2ccc(C(=O)N(C)C3CCS(=O)(=O)C3)c(F)c2)c1C#Cc1ccc(N)nc1 [Example D-216] | 59 |
| CCc1ncnc(-c2ccc(C(=O)NCCN3CCOCC3)c(F)c2)c1C#Cc1ccc(N)nc1 [Example D-217] | 44 |
| CCc1ncnc(-c2ccc(C(=O)N3CCCO3)c(F)c2)c1C#Cc1ccc(N)nc1 [Example D-218] | 80 |
| CCc1ncnc(-c2ccc(C(=O)N3CCCCO3)c(F)c2)c1C#Cc1ccc(N)nc1 [Example D-219] | 105 |
| CCc1ncnc(-c2ccc(C(=O)N3CCCO3)cc2)c1C#Cc1ccc(N)nc1 [Example D-222] | 42 |
| CCc1ncnc(-c2ccc(C(=O)N3CCCCO3)cc2)c1C#Cc1ccc(N)nc1 [Example D-223] | 77 |
| CCc1ncnc(-c2ccc(C(=O)N3CC(O)CO3)cc2)c1C#Cc1ccc(N)nc1 [Example D-224] | 39 |
| CCc1ncnc(-c2ccc(C(=O)N(C)OC)cc2)c1C#Cc1ccc(N)nc1 [Example D-225] | 66 |
| Cc1ncnc(-c2ccc(C(=O)N3CCCO3)c(F)c2)c1C#Cc1ccc(N)nc1 [Example D-226] | 48 |
| Cc1ncnc(-c2ccc(C(=O)N3CCCCO3)c(F)c2)c1C#Cc1ccc(N)nc1 [Example D-227] | 47 |
| Cc1ncnc(-c2ccc(C(=O)N3CC(O)CO3)c(F)c2)c1C#Cc1ccc(N)nc1 [Example D-228] | 52 |
| CON(C)C(=O)c1ccc(-c2ncnc(C)c2C#Cc2ccc(N)nc2)cc1F [Example D-229] | 65 |
| Cc1ncnc(-c2ccc(C(=O)N3CCCO3)c(Cl)c2)c1C#Cc1ccc(N)nc1 [Example D-230] | 37 |
| Cc1ncnc(-c2ccc(C(=O)N3CCCCO3)c(Cl)c2)c1C#Cc1ccc(N)nc1 [Example D-231] | 46 |
| Cc1ncnc(-c2ccc(C(=O)N3CC(O)CO3)c(Cl)c2)c1C#Cc1ccc(N)nc1 [Example D-232] | 38 |

| SMILES | IC50 [nM] |
| --- | --- |
| CCc1ncnc(-c2ccc(C(=O)N3CCC(N4CCOCC4)C3)c(F)c2)c1C#Cc1ccc(N)nc1 [Example D-234] | 156 |
| CCc1ncnc(-c2ccc(C(=O)N3CCC(N4CCCC4)C3)c(F)c2)c1C#Cc1ccc(N)nc1 [Example D-235] | 226 |
| CCc1ncnc(-c2ccc(C(=O)N3CC[C@@H](N(C)C)C3)c(F)c2)c1C#Cc1ccc(N)nc1 [Example D-236] | 269 |
| CCc1ncnc(-c2ccc(C(=O)N3CC[C@H](N(C)C)C3)c(F)c2)c1C#Cc1ccc(N)nc1 [Example D-237] | 161 |
| CCc1ncnc(-c2ccc(C(=O)N3CCC(N(CC)CC)C3)c(F)c2)c1C#Cc1ccc(N)nc1 [Example D-238] | 382 |
| CCc1ncnc(-c2ccc(C(=O)N3CCOCC3)c(F)c2)c1C#Cc1ccc(N)nc1 [Example D-239] | 55 |
| CCc1ncnc(-c2ccc(C(=O)N3CCN(C)CC3)nc2)c1C#Cc1ccc(N)nc1 [Example D-240] | 214 |
| CCc1ncnc(-c2cc(F)c(C(=O)N3CCN(C)CC3)c(F)c2)c1C#Cc1ccc(N)nc1 [Example E-1] | 132 |
| CCc1ncnc(-c2cc(F)c(C(=O)N3CCN(C(C)C)CC3)c(F)c2)c1C#Cc1ccc(N)nc1 [Example E-2] | 237 |
| CCc1ncnc(-c2cc(F)c(C(=O)N3CCN(CC)CC3)c(F)c2)c1C#Cc1ccc(N)nc1 [Example E-3] | 276 |
| CCCN1CCN(C(=O)c2c(F)cc(-c3ncnc(CC)c3C#Cc3ccc(N)nc3)cc2F)CC1 [Example E-4] | 133 |
| CCc1ncnc(-c2cc(F)c(C(=O)N3CCN(CCOC)CC3)c(F)c2)c1C#Cc1ccc(N)nc1 [Example E-5] | 78.8 |
| CCc1ncnc(-c2cc(F)c(C(=O)N3CCN(C4CCOCC4)CC3)c(F)c2)c1C#Cc1ccc(N)nc1 [Example E-6] | 124 |
| CCc1ncnc(-c2cc(F)c(C(=O)N3CCN(CC4CC4)CC3)c(F)c2)c1C#Cc1ccc(N)nc1 [Example E-7] | 189 |
| CCc1ncnc(-c2cc(F)c(C(=O)N3CCN(C(C)(C)C)CC3)c(F)c2)c1C#Cc1ccc(N)nc1 [Example E-8] | 1320 |
| CCc1ncnc(-c2cc(F)c(C(=O)N3CCC(N4CCOCC4)CC3)c(F)c2)c1C#Cc1ccc(N)nc1 [Example E-9] | 199 |
| CCc1ncnc(-c2cc(F)c(C(=O)N(C)C)c(F)c2)c1C#Cc1ccc(N)nc1 [Example E-10] | 49.1 |
| CCc1ncnc(-c2cc(F)c(C(=O)N3CCCC3)c(F)c2)c1C#Cc1ccc(N)nc1 [Example E-11] | 125 |
| CCc1ncnc(-c2cc(F)c(C(=O)NC)c(F)c2)c1C#Cc1ccc(N)nc1 [Example E-12] | 65 |
| CCc1ncnc(-c2cc(F)c(C(=O)NCCN3CCOCC3)c(F)c2)c1C#Cc1ccc(N)nc1 [Example E-13] | 154 |
| CCc1ncnc(-c2cc(F)c(C(=O)N3CCNCC3)c(F)c2)c1C#Cc1ccc(N)nc1 [Example E-14] | 353 |
| CCc1ncnc(-c2ccc(C(=O)N3CCC[C@H]3CO)c(F)c2)c1C#Cc1ccc(N)nc1 [Example E-17] | 136 |
| CCc1ncnc(-c2ccc(C(=O)N3CCN(CC4CC4)CC3)c(Cl)c2)c1C#Cc1ccc(N)nc1 [Example E-18] | 228 |
| CCc1ncnc(-c2ccc(C(=O)N3CCC4(CC3)OCCCO4)c(Cl)c2)c1C#Cc1ccc(N)nc1 [Example E-19] | 90.5 |
| CCc1ncnc(-c2ccc(C(=O)N3CCC(C(C)(C)O)CC3)c(Cl)c2)c1C#Cc1ccc(N)nc1 [Example E-20] | 101 |

| SMILES | IC50 [nM] |
| --- | --- |
| CCc1ncnc(-c2ccc(C(=O)N3CCC(C4CCN(C)CC4)CC3)c(Cl)c2)c1C#Cc1ccc(N)nc1 [Example E-21] | 374 |
| CCc1ncnc(-c2ccc(C(=O)NC3CCCN(C)C3)c(Cl)c2)c1C#Cc1ccc(N)nc1 (stereo not drawn) [Example E-22] | 510 |
| CCc1ncnc(-c2ccc(C(=O)N3CCC(OC)CC3)c(Cl)c2)c1C#Cc1ccc(N)nc1 [Example E-24] | 93.5 |
| CCc1ncnc(-c2ccc(C(=O)N3CCC(C)(O)CC3)c(Cl)c2)c1C#Cc1ccc(N)nc1 [Example E-25] | 76.8 |
| CCc1ncnc(-c2ccc(C(=O)N3CCC4(CCN(C)CC4)CC3)c(Cl)c2)c1C#Cc1ccc(N)nc1 [Example E-26] | 498 |
| CCc1ncnc(-c2ccc(C(=O)N3CC[C@H](O)C3)c(Cl)c2)c1C#Cc1ccc(N)nc1 [Example E-27] | 58.3 |
| CCc1ncnc(-c2ccc(C(=O)N3CC[C@@H](O)C3)c(Cl)c2)c1C#Cc1ccc(N)nc1 [Example E-28] | 65.6 |
| CCc1ncnc(-c2ccc(C(=O)N3CCCC(O)C3)c(Cl)c2)c1C#Cc1ccc(N)nc1 (stereo not drawn) [Example E-29] | 65 |
| CCc1ncnc(-c2ccc(C(=O)N3CCNCC3)c(Cl)c2)c1C#Cc1ccc(N)nc1 [Example E-34] | 164 |
| CCc1ncnc(-c2ccc(C(=O)N(C)O)c(Cl)c2)c1C#Cc1ccc(N)nc1 [Example E-35] | 67.4 |
| CCc1ncnc(-c2ccc(C(=O)N3CCCN(C)CC3)c(Cl)c2)c1C#Cc1ccc(N)nc1 [Example E-36] | 405 |
| CCc1ncnc(-c2ccc(C(=O)N3CCN(c4ccncc4)CC3)c(Cl)c2)c1C#Cc1ccc(N)nc1 [Example E-37] | 209 |
| CCc1ncnc(-c2ccc(C(=O)N3CCC(O)CC3)c(Cl)c2)c1C#Cc1ccc(N)nc1 [Example E-38] | 52.9 |
| CCc1ncnc(-c2ccc(C(=O)N3CCCOCC3)c(Cl)c2)c1C#Cc1ccc(N)nc1 [Example E-39] | 65.3 |
| CCc1ncnc(-c2ccc(C(=O)N3CCC4(CCN(C)C4)C3)c(Cl)c2)c1C#Cc1ccc(N)nc1 (stereo not drawn) [Example E-40] | 514 |
| CCc1ncnc(-c2ccc(C(=O)NCC3(C)COC3)c(Cl)c2)c1C#Cc1ccc(N)nc1 [Example E-41] | 66 |
| CCCCN1CCN(C(=O)c2ccc(-c3ncnc(CC)c3C#Cc3ccc(N)nc3)cc2OC)CC1 [Example E-43] | 502 |
| CCc1ncnc(-c2ccc(C(=O)N3CCC(C(C)(C)O)CC3)c(OC)c2)c1C#Cc1ccc(N)nc1 [Example E-44] | 232 |
| CCc1ncnc(-c2ccc(C(=O)N3CCC(N4CCN(C)CC4)CC3)c(OC)c2)c1C#Cc1ccc(N)nc1 [Example E-45] | 96.9 |
| CCc1ncnc(-c2ccc(C(=O)N3CCCC(O)C3)c(OC)c2)c1C#Cc1ccc(N)nc1 (stereo not drawn) [Example E-46] | 104 |
| CCc1ncnc(-c2ccc(C(=O)N3CCOCC3)c(OC)c2)c1C#Cc1ccc(N)nc1 [Example E-48] | 100 |
| CCc1ncnc(-c2ccc(C(=O)N3CC(O)CO3)c(OC)c2)c1C#Cc1ccc(N)nc1 (stereo not drawn) [Example E-49] | 74.5 |
| CCc1ncnc(-c2ccc(C(=O)N3CCCO3)c(OC)c2)c1C#Cc1ccc(N)nc1 [Example E-50] | 157 |
| CCc1ncnc(-c2ccc(C(=O)N3CCCC(N(C)C)C3)c(OC)c2)c1C#Cc1ccc(N)nc1 (stereo not drawn) [Example E-51] | 205 |
| CCc1ncnc(-c2ccc(C(=O)N3CCC(N4CCC(C)CC4)C3)c(OC)c2)c1C#Cc1ccc(N)nc1 (stereo not drawn) [Example E-52] | 578 |
